Test results: US6994981B2, “Modulators of paraptosis and related methods” (The Buck Institute, priority 2002, dated 2006)
“Also recorded” adds a separate entry of the source.

What was measured:
[1] = test system: ERK-1/2; experiment: Western blot of ERK-1/2 phosphorylation in 293T cells expressing NK1R; type: cell-based, human; details: 293T cells expressing the wild type NK1R, but not NK1Rd342
Protocol: (§1) For the transfected 293T cells, cells were washed with cold PBS after incubation with SP the time indicate and homogenized on lysis buffer (150 mM NaCl, 1% Triton X-100, 50 mM Tris HCL pH8.0). Cytoplasmic extracts were collected after 10 min centrifugation at 14,000 rcf. Total amount of protein was quantified by Bradford assay and electrophoresis of equal amounts of total protein was performed on SDS-polyacrylamide gels. Separated proteins were transferred to polyvinylidene fluoride membranes at 4° C. for Western blot analysis. Membranes were probed with a 1:1000 dilution of anti-ERK-1/2 or anti phospho-ERK-1/2 (BioSource). The blots were incubated in a horseradish peroxidase coupled secondary antibody for 1 h followed by enhanced chemiluminescence detection of the proteins with […]™ ECL detection (Amersham, Arlington Heights, Ill.). For striatal neurons, total ERK-1/2 was immunoprecipitated using superparamagnetic Microbeads conjugated to protein A, following manufacture's instructions (MACS, Miltenyi Biotec), and then developed by Western blot against either anti-ERK-1/2 or anti phospho-ERK-1/2.

[2] = test system: fibroblasts; experiment: SP toxicity to fibroblasts; type: cell-based; details: extracellular SP
[3] = test system: ERK-1/2; experiment: Western blot of ERK-1/2 phosphorylation in striatal neurons; type: cell-based, rat; details: after 10–30 min of SP stimulation; total ERK-1/2 unchanged
Protocol: as §1

[4] = test system: cytoplasmic calcium; experiment: Imaging of cytoplasmic calcium in single striatal cells; type: cell-based
Protocol: Single-cell imaging was performed in a Merlin imaging facility (Olympus America, USA) using an Olympus IX70 inverted epifluorescence microscope equipped with a 40× oil immersion objective and a Spectramaster monochromator (Life Science Resources, Cambridge, UK) (excitation, 340 and 380 nm; emission >505 nm). Cells were loaded with 3 μM Fura-2 AM (from TEF LABS, Texas, USA) for 30 min in incubation medium containing (in mM): 120 NaCl, 3.5 KCl, 1.3 CaCl2, 0.4 KH2PO4, 20 TES buffer, 5 NaHCO3, 1.2 Na2SO4, 15 Glucose, 1.2 MgCl2, pH adjusted to 7.4 with NaOH. 30 μg/ml bovine serum albumin was also added. Experiments were performed in a non-perfusing thermostatted chamber (37° C.) with incubation medium without bovine serum albumin (Castilho et al., J. Neurosci. 18:10277–10286 (1998)).

[5] = test system: total cellular cAMP; experiment: cAMP quantification in 293T cells overexpressing NK1R; type: cell-based, human; details: compared with 10 μM forskolin
Protocol: Total cellular cAMP was measured using the BiotrakBIOTRAK™ non-acetylation enzymeimmunoassay system (Amersham Phramacia Biotech), following manufacturer's instructions. Forskolin (Sigma) was added at 10 μM.

SP: eleven amino acid neurotransmitter of the tachykinin family, ligand of NK1R
activation of ERK-1/2 by SP [1]: activation of ERK-1/2 | toxicity to fibroblasts [2]: resistant to micromolar concentrations; also recorded: not toxic | amount of phosphorylated ERK-1/2 [3]: increase | change in cytoplasmic calcium [4]: did not induce a detectable change | production of cAMP in response to SP [5]: Neither the wild type nor the mutant NK1Rd342 overexpressed in 293T cells generated a significant amount of cAMP
